Read-outs that look alike come from different tables or passages of the source.
Key:
[1] = rat, in vivo
Source text: The rats per group for either skin or CSF sample collection contains 9 rats.
Animals were allocated randomly into the following treatment groups.
Group 1: Control—2 untreated, naïve animals for the collection of blood, skin, and CSF at the point of euthanasia.
The same 3 rats were allocated to each alternating time point of bleeding.
Samples of plasma, skin and CSF were sent to Swiss BioQuant AG, Reinach, Switzerland for further analysis.
The extravascular model was used for oral dosing. Sparse sampling option was used for plasma concentration.
The following pharmacokinetic parameters were estimated from the plasma, skin and CSF concentration versus time curve:
tmax Time to reach the maximum plasma concentration read directly from the individual plasma concentration-time curve.
Cmax Maximum plasma concentration read directly from the individual plasma concentration-time curve.
Cmax/doseCmax corrected for dose.
AUC0-t Area under the plasma concentration-time curve from time point zero to last measurable concentration. AUC0-t was calculated according to the “linear up log down” trapezoidal rule.
AUC0-8 h Area under the plasma concentration-time curve from time point zero to time point 8 h after dosing. AUC0-8 h was calculated according to the “linear up log down” trapezoidal rule.
AUC0-8 h/dose AUC0-8 h corrected for dose

[2] = tested on: SLIGRL-NH2 (PAR2 agonist peptide) induced itching in mice; assay: Efficacy of oral KM-023 in SLIGRL-NH2 itching mouse model; type: in vivo; conditions: for Decrease of number of scratches: 30 min before SLIGRL induction, 30 minutes post induction
Source text: The aim of this study is to evaluate the efficacy of anti-itching activity of KM-023 in SLIGRL-NH2 (SEQ ID NO: 1) mouse itching model.
Proteinase-activated receptors (PAR) are a group of G-protein coupled receptors which are activated by cleavage of their terminal sequence by serine proteinases. […] Thus, the administration of the murine PAR2 agonist peptide, SLIGRL-NH2 (SEQ ID NO: 1), is an known and acceptable model to assess anti-pruritic compounds in mice.
32 mice in good health status and corresponding to the specifications details above were included in the in vivo phase.
The animals were weighed before treatment. Induction of itching was performed on animals by intradermal administration of SLIGRL-NH2 (SEQ ID NO: 1) peptide in neck (volume about 20 μL).
Oral route was performed by oral gavage using plastic probe 30 min before induction with SLIGRL-NH2 (SEQ ID NO: 1) peptide.
Animals were placed in plexiglass red walls observation devices (for simultaneous observations of 4 mice). Red walls permitted observations of animals by the operator without the possibility for animals to see the operator. Animals were placed in observation cages before induction for 20 to 30 minutes.
Intradermal injections of SLIGRL (SEQ ID NO: 1) was performed on vigil animals in shaved neck and video recording was initiated immediately after injection for a duration of 30 minutes.
Manual image analysis was performed on recorded movies.
Scratching/itching bouts were counted on 6 time periods of 5 minutes (total of 30 min for each mouse).
The scratches were counted at predefined time intervals of 5 minutes post induction and 30 minutes post induction.

[3] = minipig, in vivo
Description: To assess PK profile of escalating doses of KM-023 administered via PO and IV routes. Animal care was carried out as described above. Animals were observed daily throughout the study period.
PK samples were obtained in the following time points:
On Day 0 and Day 1—time 0, 5 min post injection, 30 min post injection, 1 h post injection, 2 h post injection, 6 h post injection, 24 h post injection (on the following day)
On Day 2, 5 min post injection, 30 min post injection, 1 h post injection, 2 h post injection, 6 h post injection
Plasma samples for PK analysis have been send to Swiss BioQuant AG, Switzerland for further processing.
Methodology used for the detection of KM-023 in minipigs plasma is described in above. In both animals dosed with test item, exposure to KM-023 was detected.

[4] = tested on: SLIGRL-NH2 itching mouse model; assay: SLIGRL-NH2 itching mouse model (Example 17); type: in vivo; conditions: pre-treatment with either dose of oral KM-023
[5] = set-up: species or system mice; conditions: mouse, in vivo, po
Description: At the beginning of the study, 3 mice were weight before compound treatment. Group of 3 mice received an increasing dose of KM-023 every 24 hours 1 mg/kg, 10 mg/kg, 30 mg/kg, 100 mg/kg, 500 mg/kg once daily, in a volume of 0.2 ml, administered orally. The mice were weighed daily before treatment.
At the end of the experiment, the mice were sacrificed with CO2.

[6] = tested on: DS-Nh mice (TRPV3 Gly573Ser gain-of-function mutation); assay: Efficacy of KM-001 in DS-Nh mouse model (skin histology, dermatitis scoring); conditions: topical ointment on cheek, Day 14, KM-001 1% and 0.3%, Tacrolimus 0.1%
Description: Mice were identified by left ear punch. […] On Day −30, −23, −20, −14, −9, −2, 0, 3, 7, 10, 14, erythema and edema of the mice face have been scored on the right and left sides according to criteria in table 21 (Dermatitis scoring criteria).
The viability, clinical signs and behavior were monitored daily. Body weight was recorded daily. […] Mice were monitored just and 7 hours after administration. Animals in all groups were sacrificed at Day 14 by exsanguination through abdominal vena cava under isoflurane.
For skin samples, the skin at the inflammation site from both cheeks of the face were collected. For histological analyses, the skin was fixed in 4% paraformaldehyde for 24 hours. After fixation, these specimens were processed to paraffin embedding for H&E staining, MT staining and immunohistochemistry and toluidine blue staining.
Skin sections taken from facial treated area of each mouse are fixed in paraffin and stained with Hematoxylin & Eosin.

In the case of `Cc1nc(C(=O)N2CCC(c3ccc(-c4ccccc4C4CC4)cc3CO)C2)ccc1O` (stereo not drawn) [KM-023], the “Dose proportionality of plasma AUC0-8 h” value [1] is reported as “roughly more than dose proportional manner”, the “BBB crossing / CNS entry” value ([1]; po) is reported as “does not cross BBB” and the “Distribution in CSF” value ([1]; po) is reported as “did not distribute well in CSF”. The Distribution in skin ([1]; po) was “distributed well in skin”, the Systemic absorption ([1]; po) was “acceptable systemic absorption” and the tmax in plasma ([1]; po, 20 mg/kg) was 15 min. For the same molecule, the “Exposure ratio CSF/plasma of AUC0-8 h” value ([1]; po, 60 mg/kg) was 0.0150-0.0162, the “Exposure ratio skin/plasma of AUC0-8 h” value ([1]; po, 60 mg/kg) was 0.437-0.816 and the tmax ([1]; po, 60 mg/kg) was 0.250. The “tmax in CSF” value ([1]; po, 60 mg/kg) was 15 min, the tmax in plasma ([1]; po, 60 mg/kg) was 30 min and the tmax in skin ([1]; po, 60 mg/kg) was 15 min to 1-hour. For the same molecule, the “Decrease of number of scratches” value ([2]; oral KM-023 1 mg/kg group) was 56.25%, the “Decrease of number of scratches” value ([2]; oral KM-023 10 mg/kg group) was 68.8% and the Anti-itching effect ([2]; oral pretreatment, SLIGRL induced scratch behaviour) was “anti-pruritic activity”. The “KM-023 concentrations at 24 h post-dose” value [3] was “above 0.300 ng/mL”, the abnormal clinical signs [3] was “No abnormal clinical signs were observed” and the “bioavailability of the KM-023 formulation” value [3] was 0.2-0.8%. The blood exposure [3] was “dose dependent blood exposure”, the tmax [3] was 49.8 min and the Half-time ([3]; iv) was 3.3 to 4.2 h. For the same molecule, the “apparent maximum concentration time (tmax)” value ([3]; iv) was 5 min, the AUC0-8 h ([3]; iv, 1 mg/kg) was 314 ng·h/mL and the AUC0-h ([3]; iv, 1 mg/kg) was 320 ng·h/mL. The “AUC0-t/dose (lower part of table, beside AUC0-h)” value ([3]; iv, 1 mg/kg) was 320 (h * ng/mL)/(mg/kg), the “AUC0-t/dose (upper part of table, beside AUC0-8 h)” value ([3]; iv, 1 mg/kg) was 314 (h * ng/mL)/(mg/kg) and the C0 ([3]; iv, 1 mg/kg) was 422 ng/mL. The Vz/F ([3]; iv, 1 mg/kg) was 19.1 L/kg, the AUC0-8 h ([3]; iv, 5 mg/kg) was 1300 ng·h/mL and the AUC0-h ([3]; iv, 5 mg/kg) was 1300 ng·h/mL. The “AUC0-t/dose (lower part of table, beside AUC0-h)” value ([3]; iv, 5 mg/kg) was 261 (h * ng/mL)/(mg/kg), the “AUC0-t/dose (upper part of table, beside AUC0-8 h)” value ([3]; iv, 5 mg/kg) was 260 (h * ng/mL)/(mg/kg) and the C0 ([3]; iv, 5 mg/kg) was 2340 ng/mL. The Vz/F ([3]; iv, 5 mg/kg) was 18.2 L/kg, the AUC0-8 h ([3]; iv, 10 mg/kg) was 2800 ng·h/mL and the AUC0-h ([3]; iv, 10 mg/kg) was 2910 ng·h/mL. For the same molecule, the “AUC0-t/dose (lower part of table, beside AUC0-h)” value ([3]; iv, 10 mg/kg) was 291 (h * ng/mL)/(mg/kg), the “AUC0-t/dose (upper part of table, beside AUC0-8 h)” value ([3]; iv, 10 mg/kg) was 280 (h * ng/mL)/(mg/kg) and the C0 ([3]; iv, 10 mg/kg) was 6880 ng/mL. The “time of maximum concentration (tmax)” value ([3]; po) was 5 to 30 min, the AUC0-24 h ([3]; po, 1 mg/kg) was 0.442 ng·h/mL and the AUC0-t/dose ([3]; po, 1 mg/kg) was 0.442 kg·ng·h/mL/mg. The “AUC0-∞” value ([3]; po, 1 mg/kg) was 0.596 ng·h/mL, the AUC0-24 h ([3]; po, 5 mg/kg) was 1.31 ng·h/mL and the AUC0-t/dose ([3]; po, 5 mg/kg) was 0.262 kg·ng·h/mL/mg. The “AUC0-∞” value ([3]; po, 5 mg/kg) was 2.01 ng·h/mL, the AUC0-24 h ([3]; po, 10 mg/kg) was 23.2 ng·h/mL and the AUC0-t ([3]; po, 10 mg/kg) was 31.2 ng·h/mL. For the same molecule, the AUC0-t/dose ([3]; po, 10 mg/kg) was 2.32 kg·ng·h/mL/mg, the “AUC0-∞” value ([3]; po, 10 mg/kg) was 23.2 ng·h/mL and the “AUC0-∞/dose” value ([3]; po, 10 mg/kg) was 3.12 kg·ng·h/mL/mg. The “number of scratches observed 30 minutes post induction” value [4] was “decrease the number of scratches” and the “Maximal Feasible Dose (MFD)” value [5] was 500 mg/kg.
In the case of `C=CC[C@@H]1/C=C(\C)C[C@H](C)C[C@H](OC)[C@H]2O[C@@](O)(C(=O)C(=O)N3CCCC[C@H]3C(=O)O[C@H](/C(C)=C/[C@@H]3CC[C@@H](O)[C@H](OC)C3)[C@H](C)[C@@H](O)CC1=O)[C@H](C)C[C@@H]2OC` [Tacrolimus, reference compound], the “Skin pathology (H&E histology: epidermis, inflammation)” value [6] is reported as “only slightly improved skin pathology”.
